According to patent US20260374766A1, “METHODS FOR TREATING CANCER” (Antares Therapeutics, Inc., priority 2022, published 2026):
Where two headings read alike, the source gives them in different places.

Tests used:
p53 Y220C = p53 Y220C (Homo sapiens, UniProt P04637, Y220C); experiment: Luciferase Reporter Assay (Luc), p53 response element, NClH1299 cells with inducible p53 Y220C; assay type: cell-based; details: 6 hour; for AC50: read-out: Luc P53 Y220C AC50
Outline: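 24 h dox pre-induction (0.5 ug/mL), then 6 h compound; One-Glo luminescent read.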

[1] = target: T1, p53 Y220C mutant protein (amino acid residues 94-293) (Homo sapiens, UniProt P04637, Y220C); experiment: Surface Plasmon Resonance (SPR) assay, Kd_kinetic; assay type: binding; details: read-out: SPR P53 Y220C KD kinetic
T1 construct: p53 Y220C mutant protein (amino acid residues 94-293)
Outline: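 Temperature held at 16 or 20 °C during Biacore 8K runs. Buffer: 50 mM Tris, pH 7.5, 100 mM NaCl, 1 mM DTT, 0.01% Brij35, 0.05% Tween-20, 1% DMSO.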

H1299 p53 Y220C = experiment: Cell Proliferation Assay (CellTiter-Glo, CTG), H1299 p53 Y220C (NClH1299-inducible p53 Y220C); assay type: cell-based; details: Homo sapiens, NCI-H1299, 120 h, 5 days
Outline: (§1)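 NClH1299 lines stably transduced with Tet-inducible p53 Y220C or R273H, plus NUGC3, were treated with compound for 5 days at 250-500 cells/well. IC50 derived from CellTiter-Glo luminescent signal after 10 min room-temperature incubation.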

NUGC3 p53 Y220C = experiment: Cell Proliferation Assay (CellTiter-Glo, CTG), NUGC3 p53 Y220C; assay type: cell-based; details: Homo sapiens, NUGC-3, 120 h, 5 days
Outline: as §1

[2] = target: T1, p53 Y220C mutant protein (amino acid residues 94-293); experiment: Thermal Shift Assay (TSA), dTM; assay type: binding; details: for ΔTm at 100 µM: 100 uM compound; for ΔTm at 10 µM: 10 uM compound
Outline: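 Differential scanning fluorimetry with Sypro Orange on 5 μM p53 Y220C residues 94-293, compound tested at 10 μM or 100 μM after 3 hours at 20 °C; buffer 20 mM HEPES, pH7.4, 100 mM NaCl, 1% DMSO.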

H1299 p53 R273H = experiment: Cell Proliferation Assay (CellTiter-Glo, CTG), H1299 p53 R273H (NClH1299-inducible p53 R273H); assay type: cell-based; details: Homo sapiens, NCI-H1299, 120 h, 5 days
Outline: as §1

[3] = luciferase reporter, NClH1299 inducible p53 Y220C, 10 uM tool compound as positive control
[4] = luciferase reporter, NClH1299 inducible p53 Y220C
[5] = thermal shift, read-out: TSA P53 Y220C dTM (100 uM)
[6] = AC50, luciferase reporter, NClH1299 inducible p53 Y220C
[7] = Emax, luciferase reporter, NClH1299 inducible p53 Y220C
[8] = NClH1299-inducible p53 Y220C cells, CellTiter-Glo
[9] = p53 Y220C, read-out: TSA P53 Y220C dTM
[10] = NClH1299-inducible p53 R273H cells, CellTiter-Glo
[11] = thermal shift, read-out: TSA P53 Y220C dTM (10 uM)

| Structure (SMILES) | Emax (p53 Y220C; [3]) | AC50 (p53 Y220C; [4]) | Kd ([1]; SPR, kinetic KD, p53 Y220C) | IC50 (H1299 p53 Y220C; CellTiter-Glo, H1299 p53 Y220C) | IC50 (NUGC3 p53 Y220C; CellTiter-Glo, NUGC3 p53 Y220C) | ΔTm at 100 µM [2, 5] | IC50 (H1299 p53 R273H; CellTiter-Glo, H1299 p53 R273H) | AC50 (p53 Y220C; [6]) | Emax (p53 Y220C; [7]) | Kd ([1]; SPR, p53 Y220C) | IC50 (H1299 p53 Y220C; [8]) | IC50 (NUGC3 p53 Y220C; NUGC3 cells, CellTiter-Glo) | ΔTm at 10 µM [2, 9] | IC50 (H1299 p53 R273H; [10]) | ΔTm at 10 µM [2, 11] | further results |
| --- | --- | --- | --- | --- | --- | --- | --- | --- | --- | --- | --- | --- | --- | --- | --- | --- |
| CNC(=O)c1ccc(NCC#Cc2nc3c(N[C@@H]4CCN(C)C[C@@H]4F)cccn3c2CC(F)(F)F)c(OC)n1 [Example 92, 5-{[3-(8-{[(3S,4R)-3-fluoro-1-methylpiperidin-4-yl]amino}-3-(2,2,2-trifluoroethyl)imidazo[1,2-a]pyridin-2-yl)prop-2-yn-1-yl]amino}-6-methoxy-N-methylpyridine-2-carboxamide] | 80 to 90% | < 750 nM | < 10 nM | < 750 nM | < 750 nM | 5 to 10 °C | 5000 to 8000 nM |  |  |  |  |  |  |  |  |  |
| CNC(=O)c1ccc(OC)c(NCC#Cc2cc3c(N[C@@H]4CCN(C)C[C@@H]4F)nccn3c2SC(F)F)c1 [Example 321] |  |  |  |  |  |  |  | < 750 nM | > 90% | < 10 nM | < 750 nM | < 750 nM | ≥ 10 °C | ≥ 10000 nM |  |  |
| CNC(=O)c1ccc(OC)c(NCC#Cc2cc3c(N[C@@H]4CCN(C)C[C@@H]4F)nccn3c2SC(F)(F)F)n1 [Example 207] | > 90% | < 750 nM | < 10 nM | < 750 nM | < 750 nM |  | ≥ 10000 nM |  |  |  |  |  |  |  | ≥ 10 °C |  |
| CNC(=O)c1ccc(OC)c(NCC#Cc2nc3c(N[C@@H]4CCN(C)C[C@@H]4F)cc(F)cn3c2SC(F)(F)F)c1 [Example 154, 3-{[3-(6-fluoro-8-{[(3S,4R)-3-fluoro-1-methylpiperidin-4-yl]amino}-3-[(trifluoromethyl)sulfanyl]imidazo[1,2-a]pyridin-2-yl)prop-2-yn-1-yl]amino}-4-methoxy-N-methylbenzamide] | 70 to 80% | < 750 nM | < 10 nM | < 750 nM | < 750 nM | ≥ 10 °C | < 5000 nM |  |  |  |  |  |  |  | ≥ 10 °C |  |
| CNC(=O)c1ccc(NCC#Cc2nc3c(N[C@H]4CCC(=O)NC4)cccn3c2SC(F)(F)F)c(OC)c1 [Example 183] | 80 to 90% | 1500 to 3000 nM | 10 to 100 nM | 1500 to 3000 nM | 750 to 1500 nM | 5 to 10 °C | ≥ 10000 nM |  |  |  |  |  |  |  | 5 to 10 °C |  |
| CNC(=O)c1cnc(OC)c(NCC#Cc2nc3c(N[C@@H]4CCN(C)C[C@@H]4F)cccn3c2CC(F)(F)F)c1 [Example 261] |  |  |  |  |  |  |  | 1500 to 3000 nM | 70 to 80% | < 10 nM | 750 to 1500 nM | < 750 nM | 5 to 10 °C | ≥ 10000 nM |  | ΔTm at 100 µM [2, 9]: ≥ 10 °C |
| CNC(=O)c1ccc(NCC#Cc2nn3c(N[C@@H]4CCN(C)C[C@@H]4F)nccc3c2SC(F)F)c(OC)c1 [Example 215] | > 90% | < 750 nM | < 10 nM | < 750 nM | < 750 nM |  | ≥ 10000 nM |  |  |  |  |  |  |  | ≥ 10 °C |  |
| COc1cc(S(C)(=O)=O)ccc1NCC#Cc1nc2c(NC3CCN(C(C)C)CC3)cccn2c1CC(F)(F)F [Example 9, 1-isopropyl-N-(2-{3-[(4-methanesulfonyl-2-methoxyphenyl)amino]prop-1-yn-1-yl}-3-(2,2,2-trifluoroethyl)imidazo[1,2-a]pyridin-8-yl)piperidin-4-amine] | 70 to 80% | 1500 to 3000 nM | 10 to 100 nM | 1500 to 3000 nM | 1500 to 3000 nM | ≥ 10 °C | 5000 to 8000 nM |  |  |  |  |  |  |  |  |  |
| CNC(=O)c1ccc(Cl)c(NCC#Cc2nc3c(N[C@@H]4CCN(C)C[C@@H]4F)cccn3c2SC(F)(F)F)c1 [Example 312] |  |  |  |  |  |  |  | < 750 nM | > 90% | < 10 nM | < 750 nM | < 750 nM | ≥ 10 °C | 5000 to 8000 nM |  |  |
| CNC(=O)c1ccc(OC)c(NCC#Cc2nn3c(N[C@H]4C[C@@H]5CC[C@H]([C@H]4F)N5C)cccc3c2SC(F)(F)F)c1 [Example 288] |  |  |  |  |  |  |  | < 750 nM | 80 to 90% | < 10 nM | < 750 nM | < 750 nM | ≥ 10 °C | < 5000 nM |  |  |
| CCOc1cc(C(=O)NC)ccc1NCC#Cc1nc2c(N[C@@H]3CCN(C)C[C@@H]3F)cccn2c1SC(F)(F)F [Example 127] | 80 to 90% | < 750 nM | < 10 nM | < 750 nM | < 750 nM | ≥ 10 °C | 8000 to 10000 nM |  |  |  |  |  |  |  | ≥ 10 °C |  |
| CNC(=O)c1ccc(NCC#Cc2nc3c(N[C@@H]4CCN(C)C[C@@H]4F)cccn3c2CC(F)(F)F)c(C2CC2)c1 [Example 57, 3-cyclopropyl-4-{[3-(8-{[(3S,4R)-3-fluoro-1-methylpiperidin-4-yl]amino}-3-(2,2,2-trifluoroethyl)imidazo[1,2-a]pyridin-2-yl)prop-2-yn-1-yl]amino}-N-methylbenzamide] | 70 to 80% | > 3000 nM | 10 to 100 nM | > 3000 nM | > 3000 nM | ≥ 10 °C | ≥ 10000 nM |  |  |  |  |  |  |  |  |  |
| CNC(=O)c1ccc(NCC#Cc2cc3c(N[C@@H]4CCN(C5COC5)C[C@@H]4F)nccn3c2SC(F)(F)F)c(OC)c1 [Example 350] |  |  |  |  |  |  |  | < 750 nM | > 90% |  | < 750 nM | < 750 nM | ≥ 10 °C | ≥ 10000 nM |  | Kd [1]: < 10 nM |
| CN1CC[C@@H](Nc2cccn3c(SC(F)(F)F)c(-c4noc(CNC(=O)C5CC5)n4)nc23)[C@@H](F)C1 [Example 458] |  |  |  |  |  |  |  |  |  | 10 to 100 nM |  |  |  |  |  | AC50 (p53 Y220C; AC50, NClH1299 cells with inducible p53 Y220C): > 3000 nM; Emax (p53 Y220C; Emax, NClH1299 cells with inducible p53 Y220C, 10 uM tool compound as positive control): < 70%; IC50 (H1299 p53 Y220C; NClH1299-inducible p53 Y220C cells): > 3000 nM; IC50 (NUGC3 p53 Y220C; NUGC3 cells): > 3000 nM; ΔTm at 10 µM ([2]; read-out: TSA P53 Y220C dTM): 5 to 10 °C; ΔTm at 100 µM ([2]; read-out: TSA P53 Y220C dTM): 5 to 10 °C; IC50 (H1299 p53 R273H; NClH1299-inducible p53 R273H cells): ≥ 10000 nM |
| CNC(=O)c1cc(NCC#Cc2nc3c(N[C@@H]4CCN(C)C[C@@H]4F)cccn3c2SC(F)(F)F)c(OC)cc1F [Example 170] | 80 to 90% | < 750 nM | < 10 nM | < 750 nM | < 750 nM | ≥ 10 °C | ≥ 10000 nM |  |  |  |  |  |  |  | ≥ 10 °C |  |
